{
  "source": "paper PMC5218480",
  "about": "(PLoS ONE, 2017)",
  "tested_on": "MV-4-11 cells",
  "experiment": "Gene expression microarray analysis (Affymetrix PrimeView) and GSEA",
  "format": "cell-based, human",
  "design": "RFU PODN (11730768_x_at) / Fold change /veh PODN (11730768_x_at) / RFU LINC00158 (11744669_a_at) / Fold change /veh LINC00158 (11744669_a_at) / RFU DUSP10 (11751237_a_at) / Fold change /veh DUSP10 (11751237_a_at) / RFU ID3 (11757404_x_at) / Fold change /veh ID3 (11757404_x_at) / RFU PLEKHG5 (11737974_s_at) / Fold change /veh PLEKHG5 (11737974_s_at) / RFU LRRC4B (11730491_at) / Fold change /veh LRRC4B (11730491_at) / RFU GIMAP4 (11747438_a_at) / Fold change /veh GIMAP4 (11747438_a_at) / RFU KRT8 (11758183_x_at) / Fold change /veh KRT8 (11758183_x_at) / RFU CNN1 (11734310_a_at) / Fold change /veh CNN1 (11734310_a_at) / RFU VPS37D (11726825_at) / Fold change /veh VPS37D (11726825_at) / RFU C10orf10 (11716522_x_at) / Fold change /veh C10orf10 (11716522_x_at) / RFU KIR2DL2 /// KIR2DL4 /// KIR2DL5A /// KIR2DL5B /// KIR2DS1 /// KIR2DS2 /// KIR2DS3 /// KIR2DS4 /// KIR3DL3 /// KIR3DL3 /// KIR3DS1 (11738374_at) / Fold change /veh KIR2DL2 /// KIR2DL4 /// KIR2DL5A /// KIR2DL5B /// KIR2DS1 /// KIR2DS2 /// KIR2DS3 /// KIR2DS4 /// KIR3DL3 /// KIR3DL3 /// KIR3DS1 (11738374_at) / RFU C1QL1 (11718748_at) / Fold change /veh C1QL1 (11718748_at) / RFU TMPRSS4 (11747572_a_at) / Fold change /veh TMPRSS4 (11747572_a_at) / RFU HAMP (11756126_x_at) / Fold change /veh HAMP (11756126_x_at) / RFU RNFT2 (11725882_a_at) / Fold change /veh RNFT2 (11725882_a_at) / RFU NR4A2 (11747474_a_at) / Fold change /veh NR4A2 (11747474_a_at) / RFU ABCC12 (11746883_a_at) / Fold change /veh ABCC12 (11746883_a_at) / RFU TMEM136 (11760407_x_at) / Fold change /veh TMEM136 (11760407_x_at) / RFU CLDN22 /// WWC2 (11732394_at) / Fold change /veh CLDN22 /// WWC2 (11732394_at) / RFU HLA-DPB1 (11760878_x_at) / Fold change /veh HLA-DPB1 (11760878_x_at) / RFU SPINT1 (11716480_a_at) / Fold change /veh SPINT1 (11716480_a_at) / RFU GAP43 (11754022_s_at) / Fold change /veh GAP43 (11754022_s_at) / RFU A4GNT (11735810_at) / Fold change /veh A4GNT (11735810_at) / RFU PRB3 (11715151_x_at) / Fold change /veh PRB3 (11715151_x_at) / RFU TUBB4B (11761932_at) / Fold change /veh TUBB4B (11761932_at) / RFU CAPN14 (11732068_a_at) / Fold change /veh CAPN14 (11732068_a_at) / RFU TMCC2 (11721928_a_at) / Fold change /veh TMCC2 (11721928_a_at) / RFU IRGQ (11745062_a_at) / Fold change /veh IRGQ (11745062_a_at) / RFU FAM174B (11720279_a_at) / Fold change /veh FAM174B (11720279_a_at) / RFU TMPRSS4 (11748680_a_at) / Fold change /veh TMPRSS4 (11748680_a_at) / RFU FAM212B (11763350_a_at) / Fold change /veh FAM212B (11763350_a_at) / RFU PLEKHG5 (11743358_a_at) / Fold change /veh PLEKHG5 (11743358_a_at) / RFU ZSCAN30 (11745921_a_at) / Fold change /veh ZSCAN30 (11745921_a_at) / RFU CMKLR1 (11741424_a_at) / Fold change /veh CMKLR1 (11741424_a_at) / RFU LOC101060620 /// MAPK8IP1 (11723275_at) / Fold change /veh LOC101060620 /// MAPK8IP1 (11723275_at) / RFU SPTSSB (11747773_x_at) / Fold change /veh SPTSSB (11747773_x_at) / RFU PRSS12 (11739890_at) / Fold change /veh PRSS12 (11739890_at) / RFU BIN1 (11741810_x_at) / Fold change /veh BIN1 (11741810_x_at) / RFU WNT11 (11732464_a_at) / Fold change /veh WNT11 (11732464_a_at) / RFU C10orf10 (11716521_a_at) / Fold change /veh C10orf10 (11716521_a_at) / RFU C5orf56 (11738089_at) / Fold change /veh C5orf56 (11738089_at) / RFU CYB561 (11721691_x_at) / Fold change /veh CYB561 (11721691_x_at) / RFU ANKRD19P (11752326_a_at) / Fold change /veh ANKRD19P (11752326_a_at) / RFU OR2T12 /// OR2T33 /// OR2T8 (11738714_s_at) / Fold change /veh OR2T12 /// OR2T33 /// OR2T8 (11738714_s_at) / RFU VCAN (11748164_a_at) / Fold change /veh VCAN (11748164_a_at) / RFU JSRP1 (11732532_at) / Fold change /veh JSRP1 (11732532_at) / RFU KRTAP10-11 (11738290_x_at) / Fold change /veh KRTAP10-11 (11738290_x_at) / RFU MYO3A (11730013_a_at) / Fold change /veh MYO3A (11730013_a_at) / RFU EBF3 (11725865_a_at) / Fold change /veh EBF3 (11725865_a_at) / RFU CAMK2N1 (11719241_x_at) / Fold change /veh CAMK2N1 (11719241_x_at) / RFU C5orf56 (11738088_a_at) / Fold change /veh C5orf56 (11738088_a_at) / RFU OLFML3 (11715873_a_at) / Fold change /veh OLFML3 (11715873_a_at) / RFU LOC100653217 /// NTM (11731650_a_at) / Fold change /veh LOC100653217 /// NTM (11731650_a_at) / RFU MAPK11 (11762145_a_at) / Fold change /veh MAPK11 (11762145_a_at) / RFU FIZ1 (11724087_x_at) / Fold change /veh FIZ1 (11724087_x_at) / RFU OASL (11726364_x_at) / Fold change /veh OASL (11726364_x_at) / RFU SOX15 (11748057_x_at) / Fold change /veh SOX15 (11748057_x_at) / RFU CD79A (11719716_a_at) / Fold change /veh CD79A (11719716_a_at) / RFU HIST1H1D (11736915_at) / Fold change /veh HIST1H1D (11736915_at) / RFU CASKIN2 (11723855_a_at) / Fold change /veh CASKIN2 (11723855_a_at) / RFU LOC730098 (11760151_x_at) / Fold change /veh LOC730098 (11760151_x_at) / RFU OR4N2 (11742367_at) / Fold change /veh OR4N2 (11742367_at) / RFU PRRT2 (11749266_a_at) / Fold change /veh PRRT2 (11749266_a_at) / RFU SNX32 (11753110_a_at) / Fold change /veh SNX32 (11753110_a_at) / RFU CDHR5 (11726645_a_at) / Fold change /veh CDHR5 (11726645_a_at) / RFU RCAN1 (11760418_a_at) / Fold change /veh RCAN1 (11760418_a_at) / RFU FAM167A (11723789_a_at) / Fold change /veh FAM167A (11723789_a_at) / RFU FAM26E (11764081_at) / Fold change /veh FAM26E (11764081_at) / RFU ISYNA1 (11749810_s_at) / Fold change /veh ISYNA1 (11749810_s_at) / RFU ACY1 (11761880_at) / Fold change /veh ACY1 (11761880_at) / RFU 11764098_at / Fold change /veh 11764098_at / RFU SAMD14 (11745864_x_at) / Fold change /veh SAMD14 (11745864_x_at) / RFU NPB (11741838_a_at) / Fold change /veh NPB (11741838_a_at) / RFU TMPRSS6 (11731388_a_at) / Fold change /veh TMPRSS6 (11731388_a_at) / RFU KRTAP10-2 (11738614_at) / Fold change /veh KRTAP10-2 (11738614_at) / RFU ARHGAP8 /// PRR5-ARHGAP8 (11727945_x_at) / Fold change /veh ARHGAP8 /// PRR5-ARHGAP8 (11727945_x_at) / RFU KRTAP5-7 /// NADSYN1 (11734609_at) / Fold change /veh KRTAP5-7 /// NADSYN1 (11734609_at) / RFU RASL12 (11751679_a_at) / Fold change /veh RASL12 (11751679_a_at) / RFU CDKN2B (11736163_a_at) / Fold change /veh CDKN2B (11736163_a_at) / RFU PRF1 (11729649_at) / Fold change /veh PRF1 (11729649_at) / RFU, ZNF638 /// ZNF638-IT1 / Fold change vs veh, ZNF638 /// ZNF638-IT1 / RFU, PANK3 / Fold change vs veh, PANK3 / RFU, SH3YL1 / Fold change vs veh, SH3YL1 / RFU, ZEB2 / Fold change vs veh, ZEB2 / RFU, NRIP1 / Fold change vs veh, NRIP1 / RFU, PTTG1IP / Fold change vs veh, PTTG1IP / RFU, CAPN2 / Fold change vs veh, CAPN2 / RFU, MED14 / Fold change vs veh, MED14 / RFU, SNORA58 / Fold change vs veh, SNORA58 / RFU, C1orf63 / Fold change vs veh, C1orf63 / RFU, LRRFIP1 / Fold change vs veh, LRRFIP1 / RFU, NDUFAF7 / Fold change vs veh, NDUFAF7 / RFU, SLC12A2 / Fold change vs veh, SLC12A2 / RFU, IBTK / Fold change vs veh, IBTK / RFU, ESF1 / Fold change vs veh, ESF1 / Fold change vs veh, TMEM50B / RFU, TAOK1 / Fold change vs veh, TAOK1 / RFU, ACBD3 / Fold change vs veh, ACBD3 / RFU, TMA16 / Fold change vs veh, TMA16 / RFU, RWDD3 / Fold change vs veh, RWDD3 / RFU, BCAT1 / Fold change vs veh, BCAT1 / RFU, EDEM3 / Fold change vs veh, EDEM3 / RFU, TMEM33 / Fold change vs veh, TMEM33 / RFU, WDR75 / Fold change vs veh, WDR75 / RFU, AHCTF1 / Fold change vs veh, AHCTF1 / RFU, TFRC / Fold change vs veh, TFRC / RFU, ZDHHC17 / Fold change vs veh, ZDHHC17 / RFU, NOM1 / Fold change vs veh, NOM1 / RFU, ARL8B / Fold change vs veh, ARL8B / RFU, ZBTB11 / Fold change vs veh, ZBTB11 / RFU, TAMM41 / Fold change vs veh, TAMM41 / RFU, KIAA1704 /// LOC100996395 / Fold change vs veh, KIAA1704 /// LOC100996395 / RFU, ING1 / Fold change vs veh, ING1 / RFU, TRMT61B / Fold change vs veh, TRMT61B / RFU, FUBP3 / Fold change vs veh, FUBP3 / RFU, TP53 / Fold change vs veh, TP53 / RFU, TNKS2 / Fold change vs veh, TNKS2 / RFU, ZFP14 / Fold change vs veh, ZFP14 / RFU, ACTR2 / Fold change vs veh, ACTR2 / RFU, PPP3R1 / Fold change vs veh, PPP3R1 / RFU, PIK3R1 / Fold change vs veh, PIK3R1 / RFU, HNRNPA1 / Fold change vs veh, HNRNPA1 / RFU, RNF170 / Fold change vs veh, RNF170 / RFU, ZNF28 / Fold change vs veh, ZNF28 / RFU, RNGTT / Fold change vs veh, RNGTT / RFU, OGT / Fold change vs veh, OGT / RFU, BRD1 / Fold change vs veh, BRD1 / RFU, MARS / Fold change vs veh, MARS / RFU, ZNF655 / Fold change vs veh, ZNF655 / RFU, FAHD1 / Fold change vs veh, FAHD1 / RFU, BDP1 / Fold change vs veh, BDP1 / RFU, LRRCC1 / Fold change vs veh, LRRCC1 / RFU, ARID1A / Fold change vs veh, ARID1A / RFU, ZNF146 / Fold change vs veh, ZNF146 / RFU, ZNF330 / Fold change vs veh, ZNF330 / RFU, GPN3 / Fold change vs veh, GPN3 / RFU, C9orf123 / Fold change vs veh, C9orf123 / RFU, N4BP2L2 / Fold change vs veh, N4BP2L2 / RFU, ARFIP1 / Fold change vs veh, ARFIP1 / RFU, FAM179B / Fold change vs veh, FAM179B / RFU, BCL10 / Fold change vs veh, BCL10 / RFU, UHRF1BP1L / Fold change vs veh, UHRF1BP1L / RFU, BET1 / Fold change vs veh, BET1 / RFU, CNOT2 / Fold change vs veh, CNOT2 / RFU, ZNF268 / Fold change vs veh, ZNF268 / Fold change vs veh, ZNF507 / RFU, DGCR2 / Fold change vs veh, DGCR2 / RFU, WDSUB1 / Fold change vs veh, WDSUB1 / Fold change vs veh, HSP90B1 /// MIR3652 / RFU, ADSS / Fold change vs veh, ADSS / RFU, GK / Fold change vs veh, GK / RFU, ZNF148 / Fold change vs veh, ZNF148 / RFU, TAF9 / Fold change vs veh, TAF9 / RFU, SLC1A5 / Fold change vs veh, SLC1A5 / RFU, SLMO2 / Fold change vs veh, SLMO2 / RFU, ABCC4 / Fold change vs veh, ABCC4 / RFU, LOC101060439 /// RAP1B / Fold change vs veh, LOC101060439 /// RAP1B / RFU, RFX7 / Fold change vs veh, RFX7 / RFU, GTPBP10 / Fold change vs veh, GTPBP10 / RFU, CNEP1R1 / Fold change vs veh, CNEP1R1 / RFU, BIVM-ERCC5 /// ERCC5 / Fold change vs veh, BIVM-ERCC5 /// ERCC5 / RFU, ILF3 / Fold change vs veh, ILF3 / RFU 11762660_at / Fold change /veh 11762660_at / RFU VCAN (11757783_s_at) / Fold change /veh VCAN (11757783_s_at) / RFU DDX43 (11728927_at) / Fold change /veh DDX43 (11728927_at) / RFU KRT8 (11758188_x_at) / Fold change /veh KRT8 (11758188_x_at) / RFU NKD1 (11759106_at) / Fold change /veh NKD1 (11759106_at) / RFU SRD5A1 (11742802_a_at) / Fold change /veh SRD5A1 (11742802_a_at) / RFU TPSAB1 /// TPSB2 (11721975_s_at) / Fold change /veh TPSAB1 /// TPSB2 (11721975_s_at) / RFU GSTM3 (11746129_a_at) / Fold change /veh GSTM3 (11746129_a_at) / RFU IL23R (11737362_x_at) / Fold change /veh IL23R (11737362_x_at) / RFU TMEM51 (11727254_a_at) / Fold change /veh TMEM51 (11727254_a_at) / RFU PIWIL2 (11732686_x_at) / Fold change /veh PIWIL2 (11732686_x_at) / RFU ORM1 (11744905_x_at) / Fold change /veh ORM1 (11744905_x_at) / RFU CCDC152 (11743942_at) / Fold change /veh CCDC152 (11743942_at) / RFU ECM1 (11717891_a_at) / Fold change /veh ECM1 (11717891_a_at) / RFU IL23R (11748794_a_at) / Fold change /veh IL23R (11748794_a_at) / RFU TNFAIP8L3 (11732012_x_at) / Fold change /veh TNFAIP8L3 (11732012_x_at) / RFU MBOAT4 (11741988_at) / Fold change /veh MBOAT4 (11741988_at) / RFU 11764193_at / Fold change /veh 11764193_at / RFU TMEM53 (11763286_at) / Fold change /veh TMEM53 (11763286_at) / RFU MAGEB2 (11727129_at) / Fold change /veh MAGEB2 (11727129_at) / RFU TMEM200A (11744735_a_at) / Fold change /veh TMEM200A (11744735_a_at) / RFU CCDC152 (11751479_a_at) / Fold change /veh CCDC152 (11751479_a_at) / RFU FAM211A (11726209_a_at) / Fold change /veh FAM211A (11726209_a_at) / RFU RGS16 (11746705_a_at) / Fold change /veh RGS16 (11746705_a_at) / RFU VCAN (11755009_s_at) / Fold change /veh VCAN (11755009_s_at) / RFU RHOB (11743442_s_at) / Fold change /veh RHOB (11743442_s_at) / RFU RGS16 (11720943_a_at) / Fold change /veh RGS16 (11720943_a_at) / RFU RGS16 (11720944_at) / Fold change /veh RGS16 (11720944_at) / RFU, VPS4B / Fold change vs veh, VPS4B / RFU, CREB1 / Fold change vs veh, CREB1 / RFU, DNAJC13 / Fold change vs veh, DNAJC13 / RFU, GNAQ / Fold change vs veh, GNAQ / RFU, CDK5R1 / Fold change vs veh, CDK5R1 / RFU, ZRANB3 / Fold change vs veh, ZRANB3 / RFU, CUL4A / Fold change vs veh, CUL4A / RFU, CCNY / Fold change vs veh, CCNY / RFU, UFL1 / Fold change vs veh, UFL1 / RFU, COG3 / Fold change vs veh, COG3 / RFU, DIAPH2 / Fold change vs veh, DIAPH2 / RFU, SKA2 / Fold change vs veh, SKA2 / RFU, AFF3 / Fold change vs veh, AFF3 / RFU, LMF1 / Fold change vs veh, LMF1 / RFU, IPO11 / Fold change vs veh, IPO11 / RFU, DFFB / Fold change vs veh, DFFB / RFU, FOXP1 / Fold change vs veh, FOXP1 / RFU, CARD8 / Fold change vs veh, CARD8 / RFU, STRN3 / Fold change vs veh, STRN3 / RFU, ADK / Fold change vs veh, ADK / RFU, RASSF2 / Fold change vs veh, RASSF2 / RFU, WIPF1 / Fold change vs veh, WIPF1 / RFU, LARP1B / Fold change vs veh, LARP1B / RFU, RASA1 / Fold change vs veh, RASA1 / RFU, RB1 / Fold change vs veh, RB1 / RFU, PPFIA1 / Fold change vs veh, PPFIA1 / RFU, MAT2A / Fold change vs veh, MAT2A / RFU, CCT5 / Fold change vs veh, CCT5 / RFU, WDR92 / Fold change vs veh, WDR92 / RFU, CUX1 / Fold change vs veh, CUX1 / RFU, TTC7A / Fold change vs veh, TTC7A / RFU, TMEM135 / Fold change vs veh, TMEM135 / RFU, DEPTOR / Fold change vs veh, DEPTOR / RFU, CPM / Fold change vs veh, CPM / RFU, DNAJB6 / Fold change vs veh, DNAJB6 / RFU, CACNA2D3 / Fold change vs veh, CACNA2D3 / RFU, DTX4 / Fold change vs veh, DTX4 / RFU, TFCP2 / Fold change vs veh, TFCP2 / RFU, GMCL1 /// GMCL1P1 / Fold change vs veh, GMCL1 /// GMCL1P1 / RFU, AEBP2 / Fold change vs veh, AEBP2 / RFU, SNHG1 /// SNORD22 /// SNORD25 /// SNORD26 /// SNORD27 /// SNORD28 /// SNORD29 /// SNORD31 / Fold change vs veh, SNHG1 /// SNORD22 /// SNORD25 /// SNORD26 /// SNORD27 /// SNORD28 /// SNORD29 /// SNORD31 / Fold change (Aza/veh), C12orf56 (ProbeSet 11735607_a_at) / Fold change (ACY-1035/veh), C12orf56 (ProbeSet 11735607_a_at) / Fold change (Aza/veh), FGFR1OP (ProbeSet 11751329_s_at) / Fold change (ACY-1035/veh), FGFR1OP (ProbeSet 11751329_s_at) / Fold change (Aza/veh), VPS36 (ProbeSet 11739960_a_at) / Fold change (ACY-1035/veh), VPS36 (ProbeSet 11739960_a_at) / RFU SYPL1 (11715823_x_at) / Fold change /veh SYPL1 (11715823_x_at) / RFU IGFBP7 (11715501_s_at) / Fold change /veh IGFBP7 (11715501_s_at) / RFU REEP3 (11722064_at) / Fold change /veh REEP3 (11722064_at) / RFU IGLL1 (11728026_x_at) / Fold change /veh IGLL1 (11728026_x_at): dose or concentration left out as unconfirmed",
  "conditions": "MV-4-11 cells, 48 hours",
  "data": [
    {"smiles": "Nc1ccc(-c2cccs2)cc1NC(=O)c1ccc2c(c1)cc(C1CC1)n2CCN1CCOCC1", "note": "[ACY-1035]", "values": [
      {"measurement": "Fold change /veh LOC730098 (11760151_x_at)", "result": 1.00}
    ]}
  ]
}
